Results: the NIST ThermoML archive (doi:10.1021/acs.jced.7b00060)

Assays:
[1] = refractive index (Na D-line) (dimensionless); details: 101.33 kPa, Liquid, Standard Abbe refractometry
[2] = 101.33 kPa, Liquid; for electrical conductivity: Alternating current cell with electrodes; for viscosity: Falling or rolling sphere viscometry; for mass density: Vibrating tube method

CC[S+](C)CC.O=S(=O)([N-]S(=O)(=O)C(F)(F)F)C(F)(F)F [diethylmethylsulfonium bis[(trifluoromethyl)sulfonyl]imide]
Details	electrical conductivity, [2] [S/m]	mass density, [2] [kg/m3]	refractive index, [1]	viscosity, [2] [mPa·s]
258.15 K	0.0975	–	–	–
268.15 K	0.182	–	–	–
278.15 K	0.305	1520.53	–	98.6
283.15 K	–	–	1.4276	–
288.15 K	0.473	1510.56	1.4262	61.05
293.15 K	–	–	1.4247	–
298.15 K	0.688	1500.71	1.4233	40.71
303.15 K	–	–	1.4219	–
308.15 K	0.95	1490.96	1.4204	28.55
313.15 K	–	–	1.419	–
318.15 K	1.26	1481.3	1.4175	20.95
323.15 K	–	–	1.4161	–
328.15 K	1.61	1471.73	1.4146	15.73
333.15 K	–	–	1.4132	–
338.15 K	2	1462.25	1.4118	12.34
343.15 K	–	–	1.4103	–
348.15 K	2.43	–	–	9.945
358.15 K	2.88	–	–	8.183
368.15 K	3.37	–	–	6.826
378.15 K	3.89	–	–	5.793
388.15 K	4.43	–	–	4.981
398.15 K	4.99	–	–	4.331
418.15 K	6.16	–	–	–
438.15 K	7.38	–	–	–
458.15 K	8.63	–	–	–

CCCC[n+]1ccccc1.O=S(=O)([N-]S(=O)(=O)C(F)(F)F)C(F)(F)F [1-butylpyridinium bis[(trifluoromethyl)sulfonyl]imide]
Details	electrical conductivity, [2] [S/m]	mass density, [2] [kg/m3]	refractive index, [1]	viscosity, [2] [mPa·s]
278.15 K	0.119	1467.88	–	182.1
283.15 K	–	–	1.4474	–
288.15 K	0.206	1458.26	1.4459	100.9
293.15 K	–	–	1.4444	–
298.15 K	0.326	1448.74	1.4429	61.39
303.15 K	–	–	1.4414	–
308.15 K	0.483	1439.32	1.4399	40.14
313.15 K	–	–	1.4384	–
318.15 K	0.677	1430.02	1.4369	27.9
323.15 K	–	–	1.4354	–
328.15 K	0.909	1420.8	1.4339	20.36
333.15 K	–	–	1.4324	–
338.15 K	1.17	1411.66	1.4309	15.42
343.15 K	–	–	1.4294	–
348.15 K	1.47	1402.6	–	12.04
358.15 K	1.8	1393.63	–	9.663
368.15 K	2.16	–	–	7.904
378.15 K	2.54	–	–	–
388.15 K	2.94	–	–	–
398.15 K	3.37	–	–	–
418.15 K	4.27	–	–	–
438.15 K	5.24	–	–	–
